From patent US20230256099A1, “Safe Use of Bile Acids and Their Salts as Enhancers for Nasal Delivery of Pharmaceuticals” (priority 2020, published 2023)

Assays:
[1] = aqueous; cited from earlier work
[2] = General toxicity study of bile salt (STC) by IN delivery: clinical pathology and organ histopathology (Example 2); conditions: rat, in vivo, NOAEL for bile salt (STC) at an IN delivery, relative dose, rats; 0.75 mg / 0.298 kg
Description: Each rat was treated with two (2) IN administrations of the respective formulations in Groups A1-A5.

[3] = aqueous epinephrine, same dose by IM route; cited from earlier work

| SMILES | CMC [1] | other results |
| --- | --- | --- |
| C[C@H](CCC(=O)[O-])[C@H]1CC[C@H]2[C@@H]3[C@H](O)C[C@@H]4C[C@H](O)CC[C@]4(C)[C@H]3C[C@H](O)[C@]12C.[Na+] [SC, sodium cholate] | ~4 mM | – |
| C[C@H](CCC(=O)[O-])[C@H]1CC[C@H]2[C@@H]3CC[C@@H]4C[C@H](O)CC[C@]4(C)[C@H]3CC[C@]12C.[Na+] [SLC, sodium lithocholate] | ~1 mM | – |
| C[C@H](CCC(=O)NCCS(=O)(=O)[O-])[C@H]1CC[C@H]2[C@@H]3[C@H](O)C[C@@H]4C[C@H](O)CC[C@]4(C)[C@H]3C[C@H](O)[C@]12C.[Na+] [STC, sodium taurocholate] | – | NOAEL [2]: ≥ 2.5 mg/kg |
| CNC[C@H](O)c1ccc(O)c(O)c1 [epinephrine] | – | bioavailability (BA) based on AUC of plasma concentration, IN relative to IM [3]: approximately 5% |
